Source: PMC6664820, “Novel natural and synthetic inhibitors of solute carriers SGLT1 and SGLT2” (Pharmacology Research & Perspectives, 2019)
Structures can show the parent of a compound that is named as a salt. Where two headings read alike, the source gives them in different places.

How the values were obtained:
[1] = molecular target: T1, hSGLT2 (Homo sapiens, UniProt P31639); assay: SGLT2 inhibition assay for validation of screening hits and similar compounds (1‐NBD‐glucose uptake, CHO‐hSGLT2 cells); type: cell-based; set-up: activity: dose or concentration left out as unconfirmed; settings: for activity: compound, normalized 1-NBD-glucose uptake, CHO-hSGLT2 cells; for activity / remaining activity at 5 µM / remaining activity at 50 µM: mean; for SGLT2/SGLT1 ACTIVITY RATIO 5 uM Mean: ratio of normalized SGLT2 to SGLT1 activity at 5 uM; for remaining activity at 5 µM / remaining activity at 50 µM: 0.5 h, concentration not given, read-out: NORMALIZED SGLT2 ACTIVITY (%)
T1 sequence (P31639 1-672): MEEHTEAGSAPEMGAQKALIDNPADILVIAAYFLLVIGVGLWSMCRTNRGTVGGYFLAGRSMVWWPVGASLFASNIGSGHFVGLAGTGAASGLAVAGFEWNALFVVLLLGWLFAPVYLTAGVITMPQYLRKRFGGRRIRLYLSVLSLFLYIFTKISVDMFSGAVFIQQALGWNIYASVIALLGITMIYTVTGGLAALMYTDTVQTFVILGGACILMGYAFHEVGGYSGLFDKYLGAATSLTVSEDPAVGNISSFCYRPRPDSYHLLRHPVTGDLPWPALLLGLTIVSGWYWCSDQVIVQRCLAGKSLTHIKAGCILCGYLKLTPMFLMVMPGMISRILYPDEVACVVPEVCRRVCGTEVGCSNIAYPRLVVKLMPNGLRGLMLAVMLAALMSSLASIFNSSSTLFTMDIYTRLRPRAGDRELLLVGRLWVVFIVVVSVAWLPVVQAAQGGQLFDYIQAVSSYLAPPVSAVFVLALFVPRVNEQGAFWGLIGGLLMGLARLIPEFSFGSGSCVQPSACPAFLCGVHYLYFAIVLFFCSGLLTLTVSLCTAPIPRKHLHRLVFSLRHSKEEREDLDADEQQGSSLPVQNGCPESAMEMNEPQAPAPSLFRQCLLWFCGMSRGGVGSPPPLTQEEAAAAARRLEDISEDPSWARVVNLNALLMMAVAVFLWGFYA

[2] = molecular target: T2, SGLT1 (Homo sapiens, UniProt P13866); assay: SGLT1 inhibition assay for validation of screening hits and similar compounds (1‐NBD‐glucose uptake, CHO‐hSGLT1 cells); type: cell-based; set-up: activity: dose or concentration left out as unconfirmed; settings: for inhibition at 50 µM: read-out: SGLT1 inhibition; for activity: compound, normalized 1-NBD-glucose uptake, CHO-hSGLT1 cells; for activity / remaining activity at 5 µM / remaining activity at 50 µM: mean; for remaining activity at 5 µM / remaining activity at 50 µM: 0.5 h, concentration not given, read-out: NORMALIZED SGLT1 ACTIVITY (%)
T2 sequence (P13866 1-664): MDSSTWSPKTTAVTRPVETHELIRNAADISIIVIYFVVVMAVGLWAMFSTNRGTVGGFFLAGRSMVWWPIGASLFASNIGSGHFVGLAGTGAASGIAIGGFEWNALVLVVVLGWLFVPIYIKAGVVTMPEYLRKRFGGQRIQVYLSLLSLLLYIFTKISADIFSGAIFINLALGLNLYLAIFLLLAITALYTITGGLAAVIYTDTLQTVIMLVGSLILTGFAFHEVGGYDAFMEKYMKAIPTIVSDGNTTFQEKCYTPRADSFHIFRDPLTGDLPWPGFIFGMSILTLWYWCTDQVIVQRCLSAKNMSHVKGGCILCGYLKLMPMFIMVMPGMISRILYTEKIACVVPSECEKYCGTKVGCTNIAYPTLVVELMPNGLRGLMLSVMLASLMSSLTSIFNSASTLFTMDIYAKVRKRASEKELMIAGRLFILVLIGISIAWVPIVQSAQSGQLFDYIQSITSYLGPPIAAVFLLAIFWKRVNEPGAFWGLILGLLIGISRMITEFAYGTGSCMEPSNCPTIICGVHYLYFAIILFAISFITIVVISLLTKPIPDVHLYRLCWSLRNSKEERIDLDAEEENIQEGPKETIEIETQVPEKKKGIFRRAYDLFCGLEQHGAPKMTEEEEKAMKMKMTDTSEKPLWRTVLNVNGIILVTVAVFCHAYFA

[3] = test system: CHO‐hSGLT1/2 cells; assay: Cytotoxicity assay (ToxiLight, adenylate kinase leakage into CHO‐SGLT1/2 inhibition assay media); set-up: CYTOTOXICITY / CY[…], mean / CYTOTOXICITY (% of vehicle control) Mean / CYTOTOXICITY, mean / CY[…] (% of vehicle control) Mean: dose or concentration left out as unconfirmed; settings: for CY[…] 50 mM: at 50 mM (so in the source);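 on all read-outs here: bioluminescent read-out of adenylate kinase released from lysed cells into the medium, given relative to DMSO vehicle control defined as 0%, higher meaning more cytolysis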
[4] = 1‐NBD‐glucose uptake, CHO‐hSGLT2, mean of n biological replicates, or individual measurements where n=2, read-out: SGLT2‐IC50 Mean
[5] = mean inhibition with 50 μmol/L inhibitor
[6] = 1‐NBD‐glucose uptake, CHO‐hSGLT1, mean of n biological replicates, or individual measurements where n=2, read-out: SGLT1‐IC50 Mean
[7] = SGLT1 and/or SGLT2, discussion statements

Row | Structure (SMILES) | remaining activity at 5 µM [1] [%] | remaining activity at 50 µM [1] [%] | remaining activity at 5 µM [2] [%] | remaining activity at 50 µM [2] [%] | also measured
1 | Oc1ccc(C=Cc2cc(O)cc3c2C(c2cc(O)cc(O)c2)C(c2ccc(O)cc2)O3)cc1 (stereo not drawn) [(+)‐ε‐viniferin] | – | – | – | – | IC50 [1, 4]: 110 µM; SGLT2 inhibition [1, 5]: little inhibition of SGLT2; IC50 [2, 6]: 58 µM; SGLT2/SGLT1‐50μmol/L (ratio of SGLT2 to SGLT1 activities with 50 μmol/L inhibitor) ([2]; listed as (+)‐ε‐Viniferin): 1.4; inhibition at 50 µM [2, 5]: 44%
2 | CN1CCc2cc3c(cc2C2OC(O)c4c(ccc5c4OCO5)C21)OCO3 (stereo not shown) [(Iso)rheagenine] | – | – | – | – | activity [1]: 97%; SGLT2/SGLT1 ACTIVITY RATIO 5 uM Mean [1]: 0.857; activity [2]: 114%
3 | Oc1ccc(C=Cc2cc(O)cc3c2C(c2cc(O)cc(O)c2)C(c2ccc(O)cc2)O3)cc1 (stereo not drawn) [(−)‐ε‐viniferin] | – | – | – | – | inhibition at 50 µM [1, 5]: 35%; SGLT2/SGLT1‐50μmol/L (ratio of SGLT2 to SGLT1 activities with 50 μmol/L inhibitor) [2]: 0.6; SGLT1 inhibition [2, 5]: did not inhibit SGLT1
4 | CN1CCCCC1c1ccc(-c2cccnc2)nc1 (stereo not shown) [Anabasamine] | 103 | 91 | 114 | 100 | –
5 | Clc1ccc(C2(Cn3cncn3)OCCO2)c(Cl)c1 [Azaconazole] | 109 | 104 | 111 | 107 | –
6 | Oc1c(Br)cc(Br)c2cccnc12 [Broxyquinoline] | 100 | 90 | 110 | 69 | –
7 | CCN(CC)CCOC(=O)C1(c2ccccc2)CCCC1 [Caramiphen, reference compound] | – | – | – | – | inhibition at 50 µM [1, 5]: 58%; SGLT2/SGLT1‐50μmol/L (ratio of SGLT2 to SGLT1 activities with 50 μmol/L inhibitor) [2]: 0.6; inhibition at 50 µM [2, 5]: 33%
8 | CN(C)CCOC(c1ccc(Cl)cc1)c1ccccn1 (stereo not shown) [Carbinoxamine] | – | – | – | – | activity [1]: 100%; SGLT2/SGLT1 ACTIVITY RATIO 5 uM Mean [1]: 1.0; activity [2]: 105%
9 | C=C[C@H]1C[N@@]2CC[C@H]1C[C@@H]2[C@@H](O)c1ccnc2ccccc12 [Cinchonine] | 111 | 105 | 121 | 112 | –
10 | CN1CCC[C@@H]1CCO[C@](C)(c1ccccc1)c1ccc(Cl)cc1 [Clemastine fumarate] | – | – | – | – | CY[…] 50 mM ([3]; mean): 2.45
11 | Oc1c(I)cc(Cl)c2cccnc12 [Clioquinol, 5-Chloro-7-iodo-8-quinolinol] | 107 | 92 | 107 | 84 | –
12 | Clc1ccc(C(OCCN2CCCCC2)c2ccccc2)cc1 (stereo not shown) [Cloperastine, cloperastine, reference compound] | – | – | – | – | IC50 [1, 4]: 9 µM; IC50 [2, 6]: 9 µM; SGLT1/2 inhibition stated in words [2, 7]: novel SGLT1/2 inhibitors; inhibition at 50 µM [2, 5]: 72%
13 | CC[C@H]1CN2CC[C@H]1C[C@H]2[C@H](O)c1ccnc2ccc(OC)cc12 [Dihydroquinine] | 94 | 58 | 99 | 63 | –
14 | COc1ccc2ccc(=O)oc2c1C(OC(C)=O)C(=O)C(C)C (stereo not shown) [Hainanmurpanin] | – | – | – | – | activity [1]: 108%; SGLT2/SGLT1 ACTIVITY RATIO 5 uM Mean [1]: 1.0; activity [2]: 110%
15 | O=C(/C=C/c1ccc(O[C@@H]2O[C@H](CO)[C@@H](O)[C@H](O)[C@H]2O)cc1)c1ccc(O)cc1O [Isoliquiritin] | – | – | – | – | activity [1]: 98%; inhibition at 50 µM [1, 5]: 24%; SGLT2/SGLT1 ACTIVITY RATIO 5 uM Mean [1]: 1.0; SGLT2/SGLT1‐50μmol/L (ratio of SGLT2 to SGLT1 activities with 50 μmol/L inhibitor) [2]: 1.4; activity [2]: 96%; inhibition at 50 µM [2, 5]: 46%
16 | CCN(CC)CC(=O)Nc1c(C)cccc1C [Lidocaine] | 90 | 77 | 90 | 82 | –

Row | Structure (SMILES) | remaining activity at 5 µM [1] [%] | remaining activity at 50 µM [1] [%] | remaining activity at 5 µM [2] [%] | remaining activity at 50 µM [2] [%] | also measured
17 | CN(C)CCN(Cc1cccs1)c1ccccn1 [Methapyrilene HCl] | – | – | – | – | CY[…] 50 mM ([3]; mean): -16
18 | CN1CCN2c3ncccc3Cc3ccccc3C2C1 (stereo not shown) [Mirtazapine] | 113 | 108 | 114 | 105 | –
19 | Cc1cccc(C)c1NC(=O)CN1CCCC1=O [Nefiracetam] | 87 | 84 | 95 | 95 | –
20 | Cc1ccccc1C(OCCN(C)C)c1ccccc1 (stereo not shown) [Orphenadrine HCl] | – | – | – | – | CYTOTOXICITY (% of vehicle control) Mean ([3]; mean): 9 % of vehicle control
21 | COc1cc2oc(=O)ccc2cc1C[C@@H](O)C(C)(C)O [Peucedanol] | – | – | – | – | activity [1]: 95%; activity [2]: 100%
22 | Cc1cccc(C)c1NC(=O)CC12CCCN1CCC2 [Pilsicainide] | 90 | 78 | 94 | 89 | –
23 | OC[C@H]1O[C@@H](Oc2cc(O)cc(/C=C/c3ccc(O)cc3)c2)[C@H](O)[C@@H](O)[C@@H]1O [Polydatin] | – | – | – | – | activity [1]: 97%; inhibition at 50 µM [1, 5]: 18%; SGLT2/SGLT1 ACTIVITY RATIO 5 uM Mean [1]: 1.0; SGLT2/SGLT1‐50μmol/L (ratio of SGLT2 to SGLT1 activities with 50 μmol/L inhibitor) [2]: 1.5; activity [2]: 94%; inhibition at 50 µM [2, 5]: 46%
24 | CCCNC(C)C(=O)Nc1ccccc1C (stereo not shown) [Prilocaine] | 89 | 76 | 95 | 86 | –
25 | OC(CCN1CCCC1)(c1ccccc1)C1CCCCC1 (stereo not shown) [Procyclidine HCl] | – | – | – | – | activity [1]: 76%; activity [2]: 74%
26 | COc1cc(O)c2c(=O)c(-c3ccc(OC4OC(CO)C(O)C(O)C4O)cc3)coc2c1 (stereo not shown) [Prunetin‐4‐p‐galactoside] | – | – | – | – | inhibition at 50 µM [1, 5]: 12%; SGLT2/SGLT1‐50μmol/L (ratio of SGLT2 to SGLT1 activities with 50 μmol/L inhibitor) [2]: 2.3; inhibition at 50 µM [2, 5]: 62%
27 | CN[C@H]1CC[C@@H](c2ccc(Cl)c(Cl)c2)c2ccccc21 [Sertraline HCl] | – | – | – | – | CY[…], mean ([3]; ToxiLight, adenylate kinase leakage): -21
28 | CC(C)(C)C(=O)C(Oc1ccc(Cl)cc1)n1cncn1 (stereo not shown) [Triadimefon] | 91 | 76 | 101 | 58 | –
29 | OC(CCN1CCCCC1)(c1ccccc1)C1CCCCC1 (stereo not shown) [Trihexyphenidyl, trihexyphenidyl, reference compound] | – | – | – | – | IC50 [1]: 20 µM; IC50 [2]: 12 µM; SGLT1/2 inhibition stated in words [2]: novel SGLT1/2 inhibitors; inhibition at 50 µM [2]: 69%
30 | Oc1ccc([C@H]2c3c(O)cc4c5c3[C@@H]([C@H](c3ccc(O)cc3)c3c(O)cc(O)cc3[C@H]5[C@@H](c3ccc(O)cc3)O4)[C@@H]2c2cc(O)cc(O)c2)cc1 [Viniferol D] | 97 | 65 | 100 | 102 | inhibition at 50 µM [1, 5]: 35%; SGLT2/SGLT1‐50μmol/L (ratio of SGLT2 to SGLT1 activities with 50 μmol/L inhibitor) [2]: 0.6; SGLT1 inhibition [2, 5]: no effect on SGLT1
31 | Oc1ccc([C@H]2Oc3cc(O)cc4c3[C@@H]2c2cc(O)cc3c2[C@@H](c2cc(O)cc5c2[C@@H]4[C@H](c2ccc(O)cc2)O5)[C@H](c2ccc(O)cc2)O3)cc1 [a-Viniferin] | 104 | 109 | 96 | 102 | –
32 | CCCCN1CCCC[C@H]1C(=O)Nc1c(C)cccc1C [levobupivacaine, reference compound] | 73 | 46 | 74 | 41 | SGLT1/2 inhibition stated in words [2, 7]: novel SGLT1/2 inhibitors
